Laboratory results published in patent US20110269759A1, “PYRIMIDINE COMPOUNDS AS DELTA OPIOID RECEPTOR MODULATORS” (priority 2009, published 2011).
Read-outs that look alike come from different tables or passages of the source.

How the values were obtained:
Delta Opioid Receptor = biological target: T1, Delta Opioid Receptor (Rattus norvegicus, UniProt P33533); assay: Rat brain delta opioid receptor binding assay ([3H]DPDPE or [3H]naltrindole)
T1 construct: the forebrains were homogenized in Tris buffer in a Teflon®-glass homogenizer; from tissue; host or cells: forebrain of male Wistar rats, particulate membrane preparation

Mu Opioid Receptor = biological target: T2, Mu Opioid Receptor (Rattus norvegicus, UniProt P33535); assay: Rat brain mu opioid receptor binding assay ([3H]DAMGO)
T2 construct: the forebrains were homogenized in Tris buffer in a Teflon®-glass homogenizer; from tissue; host or cells: forebrain of male Wistar rats, particulate membrane preparation

δ-opioid receptor = δ-opioid receptor (Mus musculus, UniProt P32300); assay: [35S]GTPγS δ-opioid receptor functional assay (EC50, relative efficacy, % inhibition); type: biochemical; parameters: NG108-15 cell membranes were purchased from Applied Cell Sciences (Rockville, Md.); conditions: for inhibition at 10 µM: read-out: GTPγS δ-opioid receptor % Inh @10 μM
[1] = rat forebrain membranes, 0.25 nM [3H]naltrindole, read-out: δ-binding (Naltrindole ligand) Ki
[2] = rat forebrain membranes, ~0.8 nM [3H]DAMGO, read-out: μ-binding Ki
[3] = rat forebrain membranes, ~4 nM [3H]DPDPE, read-out: δ-binding (DPDPE ligand) Ki

T1 sequence (P33533 whole entry): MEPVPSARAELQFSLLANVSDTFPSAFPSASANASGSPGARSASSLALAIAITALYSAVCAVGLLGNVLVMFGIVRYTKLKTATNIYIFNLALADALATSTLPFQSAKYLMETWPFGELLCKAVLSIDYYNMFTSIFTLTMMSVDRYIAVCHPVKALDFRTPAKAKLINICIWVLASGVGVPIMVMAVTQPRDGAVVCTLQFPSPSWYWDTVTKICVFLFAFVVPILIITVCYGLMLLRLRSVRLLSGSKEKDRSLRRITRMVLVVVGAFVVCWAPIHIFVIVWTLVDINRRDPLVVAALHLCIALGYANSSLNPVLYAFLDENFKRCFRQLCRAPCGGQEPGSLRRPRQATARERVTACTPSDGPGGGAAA
T2 sequence (P33535 whole entry): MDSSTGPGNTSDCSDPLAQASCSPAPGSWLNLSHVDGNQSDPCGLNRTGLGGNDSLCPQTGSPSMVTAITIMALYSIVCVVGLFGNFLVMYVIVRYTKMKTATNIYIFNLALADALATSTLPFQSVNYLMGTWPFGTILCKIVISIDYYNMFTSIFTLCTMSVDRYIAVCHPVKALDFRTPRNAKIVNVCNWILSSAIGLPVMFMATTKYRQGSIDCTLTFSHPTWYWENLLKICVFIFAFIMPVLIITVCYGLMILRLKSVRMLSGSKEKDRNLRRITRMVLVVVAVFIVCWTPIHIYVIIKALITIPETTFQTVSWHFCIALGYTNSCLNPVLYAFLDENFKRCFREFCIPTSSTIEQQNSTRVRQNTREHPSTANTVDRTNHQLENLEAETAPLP
Chain of δ-opioid receptor (P32300 whole entry): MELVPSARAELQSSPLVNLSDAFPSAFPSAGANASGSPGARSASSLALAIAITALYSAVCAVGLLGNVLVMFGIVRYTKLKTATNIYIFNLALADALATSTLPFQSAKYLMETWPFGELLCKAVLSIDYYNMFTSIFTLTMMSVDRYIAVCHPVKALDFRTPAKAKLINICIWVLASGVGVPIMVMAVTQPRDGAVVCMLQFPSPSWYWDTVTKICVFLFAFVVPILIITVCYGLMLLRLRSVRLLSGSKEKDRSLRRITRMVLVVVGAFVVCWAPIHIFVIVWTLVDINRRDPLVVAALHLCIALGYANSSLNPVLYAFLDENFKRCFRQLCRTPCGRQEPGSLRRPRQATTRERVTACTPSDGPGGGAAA

SMILES | Ki (Delta Opioid Receptor; [1]) | Ki (Mu Opioid Receptor; [2]) | other results
COc1ccc(Oc2cc(-c3ccccc3)ccc2N2CCN(C)CC2)cc1 [Cpd 47, 1-[3-(4-Methoxy-phenoxy)biphenyl-4-yl]-4-methyl-piperazine] | 2.22 µM | > 10 µM | 
COc1ccc(Oc2ccc(N(CC3CNC3)CC3CNC3)c(Oc3ccc(OC)cc3)c2)cc1 [Cpd 59] |  | > 10 µM | Ki (Delta Opioid Receptor; [3]): 2.28 µM
CCN(CC)C(=O)c1ccc(NC[C@@H]2CCCN2)c(Oc2ccccc2)c1 [Cpd 9, (S)-N,N-Diethyl-3-phenoxy-4-[(pyrrolidin-2-ylmethyl)-amino]-benzamide] | 1.02 µM | > 10 µM | 
COc1ccc(Oc2cc(-c3cncc(C)c3)ccc2NC[C@@H]2C[C@@H](F)CN2)cc1 [Cpd 28] |  |  | Ki (Delta Opioid Receptor): 0.00681 µM; EC50 (δ-opioid receptor): 0.165 µM; GTPγS δ-opioid receptor Rel Efficacy (δ-opioid receptor): 0.8756; Ki (Mu Opioid Receptor): 4.67 µM
COc1ccc(Oc2ccc(NC[C@@H](N)CO)c(Oc3ccc(OC)cc3)c2)cc1 [Cpd 55] |  |  | Ki (Delta Opioid Receptor; [3]): 1.37 µM
COc1ccc(Oc2cc(-c3ccoc3)ccc2NC[C@@H]2CCCN2)cc1 [Cpd 40] | 0.205 µM |  | 
N#Cc1ccc(Oc2cc(-c3ccccc3)ccc2NC[C@@H]2CCCN2)cc1 [Cpd 12, (S)-4-{4-[(Pyrrolidin-2-ylmethyl)-amino]-biphenyl-3-yloxy}-benzonitrile] | 0.996 µM | > 10 µM | 
Fc1ccc(Oc2cc(-c3ccccc3)ccc2NC[C@@H]2CCCN2)cc1 [Cpd 16] | 0.419 µM |  | 
COc1ccc(Oc2ccc(NC3CC4CCC(C3)N4)c(Oc3ccc(OC)cc3)c2)cc1 (stereo not drawn) [Cpd 57] |  | > 10 µM | Ki (Delta Opioid Receptor; [3]): 1.43 µM
COc1ccc(Oc2cc(-c3cncc(OC)c3)ccc2NC[C@@H]2C[C@@H](F)CN2)cc1 [Cpd 27] | 1 µM |  | 
CCN(CC)C(=O)c1cccc(CCc2ccc(NC[C@@H]3CCCN3)c(Oc3ccc(OC)cc3)c2)c1 [Cpd 8, (S)-N,N-Diethyl-3-(2-{3-(4-methoxy-phenoxy)-4-[(pyrrolidin-2-ylmethyl)-amino]-phenyl}-ethyl)-benzamide] | 0.127 µM |  | Ki (Mu Opioid Receptor): 9 µM
CNCCNc1ccc(Oc2ccc(OC)cc2)cc1Oc1ccc(OC)cc1 [Cpd 63, N-[2,4-Bis-(4-methoxy-phenoxy)-phenyl]-N′-methyl-ethane-1,2-diamine] |  |  | Ki (Delta Opioid Receptor): 0.0237 µM; inhibition at 10 µM (δ-opioid receptor): 26%; Ki (Mu Opioid Receptor; read-out: μ-binding Ki): > 10 µM
O=C(O)c1cccc(Oc2cc(-c3ccccc3)ccc2NC[C@@H]2CCCN2)c1 [Cpd 32] | 2.67 µM |  | 
COc1ccc(Oc2cc(-c3ccc4ccccc4c3)ccc2NC[C@@H]2CCCN2)cc1 [Cpd 36, (S)-[2-(4-Methoxy-phenoxy)-4-naphthalen-2-yl-phenyl]-pyrrolidin-2-ylmethyl-amine] | 0.29 µM | > 10 µM | 
COc1ccc(Oc2cc(-c3ccccc3)ccc2NC[C@@H]2CCCN2)cc1 [Cpd 35, (S)-[3-(4-Methoxy-phenoxy)-biphenyl-4-yl]-pyrrolidin-2-ylmethyl-amine] |  |  | Ki (Delta Opioid Receptor): 0.0289 µM; inhibition at 10 µM (δ-opioid receptor): 1%; Ki (Mu Opioid Receptor; read-out: μ-binding Ki): > 10 µM
c1ccc(Oc2cc(-c3ccccc3)ccc2NC[C@@H]2CCCN2)cc1 [Cpd 14] | 0.113 µM |  | 
COc1ccc(Oc2ccc(NCC3CNC3)c(Oc3ccc(OC)cc3)c2)cc1 [Cpd 58] |  | > 10 µM | Ki (Delta Opioid Receptor; [3]): 0.703 µM
NC(=O)c1ccc(Oc2cc(-c3ccccc3)ccc2NC[C@@H]2CCCN2)cc1 [Cpd 29, (S)-4-{4-[(Pyrrolidin-2-ylmethyl)-amino]-biphenyl-3-yloxy}-benzamide] | 0.147 µM | > 10 µM | 
COc1ccc(Oc2cc(-c3ccccc3)ccc2NC2CCNCC2)cc1 [Cpd 23] | 0.461 µM | > 10 µM | 
COc1ccc(Oc2cc(CCc3ccc(F)cc3)ccc2NC[C@@H]2CCCN2)cc1 [Cpd 6] | 0.684 µM |  | 
O=C(O)c1ccc(Oc2cc(-c3ccccc3)ccc2NC[C@@H]2CCCN2)cc1 [Cpd 31, (S)-4-{4-[(Pyrrolidin-2-ylmethyl)-amino]-biphenyl-3-yloxy}-benzoic acid] | 7.69 µM | > 10 µM | 
CNCCN(CCNC)c1ccc(Oc2ccc(OC)cc2)cc1Oc1ccc(OC)cc1 [Cpd 64, N-[2,4-Bis-(4-methoxy-phenoxy)-phenyl]-N′-methyl-N-(2-methylamino-ethyl)-ethane-1,2-diamine] |  | > 10 µM | Ki (Delta Opioid Receptor; [3]): 1.54 µM
CCN(CC)C(=O)c1ccc(Oc2cc(-c3ccccc3)ccc2NC[C@@H]2CCCN2)cc1 [Cpd 33, (S)-N,N-Diethyl-4-{4-[(pyrrolidin-2-ylmethyl)-amino]-biphenyl-3-yloxy}-benzamide] | 0.284 µM |  | Ki (Mu Opioid Receptor): 9.3 µM
NC(=O)c1cccc(Oc2cc(-c3ccccc3)ccc2NC[C@@H]2CCCN2)c1 [Cpd 30] | 0.127 µM |  | EC50 (δ-opioid receptor): 1.02 µM; GTPγS δ-opioid receptor Rel Efficacy (δ-opioid receptor): 0.2668; inhibition at 10 µM (δ-opioid receptor): 36.5%; Ki (Mu Opioid Receptor): 5.8 µM
CCN(CC)C(=O)CCc1ccc(NC[C@@H]2CCCN2)c(Oc2ccc(OC)cc2)c1 [Cpd 2, N,N-Diethyl-3-[3-(4-methoxyphenoxy)-4-{[(2S)-pyrrolidin-2-ylmethyl]amino}phenyl]propanamide] | 0.0264 µM | > 100 µM | GTPγS δ-opioid receptor Rel Efficacy (δ-opioid receptor): 0.8333; inhibition at 10 µM (δ-opioid receptor): 22.8%; EC50 (δ-opioid receptor; read-out: GTPγS δ-opioid receptor EC50): 0.0391 µM
COc1cccc(Oc2cc(-c3ccccc3)ccc2NC[C@@H]2CCCN2)c1 [Cpd 15] | 0.289 µM |  | 
